{"source": "ChEMBL document CHEMBL1201862", "about": "“PubChem BioAssay data set” (2004)", "key": {"Fatty acid synthase [1]": {"target": "T1, Fatty acid synthase (Homo sapiens, UniProt P49327)", "T1 sequence (P49327 whole entry, the tested form may be a part)": "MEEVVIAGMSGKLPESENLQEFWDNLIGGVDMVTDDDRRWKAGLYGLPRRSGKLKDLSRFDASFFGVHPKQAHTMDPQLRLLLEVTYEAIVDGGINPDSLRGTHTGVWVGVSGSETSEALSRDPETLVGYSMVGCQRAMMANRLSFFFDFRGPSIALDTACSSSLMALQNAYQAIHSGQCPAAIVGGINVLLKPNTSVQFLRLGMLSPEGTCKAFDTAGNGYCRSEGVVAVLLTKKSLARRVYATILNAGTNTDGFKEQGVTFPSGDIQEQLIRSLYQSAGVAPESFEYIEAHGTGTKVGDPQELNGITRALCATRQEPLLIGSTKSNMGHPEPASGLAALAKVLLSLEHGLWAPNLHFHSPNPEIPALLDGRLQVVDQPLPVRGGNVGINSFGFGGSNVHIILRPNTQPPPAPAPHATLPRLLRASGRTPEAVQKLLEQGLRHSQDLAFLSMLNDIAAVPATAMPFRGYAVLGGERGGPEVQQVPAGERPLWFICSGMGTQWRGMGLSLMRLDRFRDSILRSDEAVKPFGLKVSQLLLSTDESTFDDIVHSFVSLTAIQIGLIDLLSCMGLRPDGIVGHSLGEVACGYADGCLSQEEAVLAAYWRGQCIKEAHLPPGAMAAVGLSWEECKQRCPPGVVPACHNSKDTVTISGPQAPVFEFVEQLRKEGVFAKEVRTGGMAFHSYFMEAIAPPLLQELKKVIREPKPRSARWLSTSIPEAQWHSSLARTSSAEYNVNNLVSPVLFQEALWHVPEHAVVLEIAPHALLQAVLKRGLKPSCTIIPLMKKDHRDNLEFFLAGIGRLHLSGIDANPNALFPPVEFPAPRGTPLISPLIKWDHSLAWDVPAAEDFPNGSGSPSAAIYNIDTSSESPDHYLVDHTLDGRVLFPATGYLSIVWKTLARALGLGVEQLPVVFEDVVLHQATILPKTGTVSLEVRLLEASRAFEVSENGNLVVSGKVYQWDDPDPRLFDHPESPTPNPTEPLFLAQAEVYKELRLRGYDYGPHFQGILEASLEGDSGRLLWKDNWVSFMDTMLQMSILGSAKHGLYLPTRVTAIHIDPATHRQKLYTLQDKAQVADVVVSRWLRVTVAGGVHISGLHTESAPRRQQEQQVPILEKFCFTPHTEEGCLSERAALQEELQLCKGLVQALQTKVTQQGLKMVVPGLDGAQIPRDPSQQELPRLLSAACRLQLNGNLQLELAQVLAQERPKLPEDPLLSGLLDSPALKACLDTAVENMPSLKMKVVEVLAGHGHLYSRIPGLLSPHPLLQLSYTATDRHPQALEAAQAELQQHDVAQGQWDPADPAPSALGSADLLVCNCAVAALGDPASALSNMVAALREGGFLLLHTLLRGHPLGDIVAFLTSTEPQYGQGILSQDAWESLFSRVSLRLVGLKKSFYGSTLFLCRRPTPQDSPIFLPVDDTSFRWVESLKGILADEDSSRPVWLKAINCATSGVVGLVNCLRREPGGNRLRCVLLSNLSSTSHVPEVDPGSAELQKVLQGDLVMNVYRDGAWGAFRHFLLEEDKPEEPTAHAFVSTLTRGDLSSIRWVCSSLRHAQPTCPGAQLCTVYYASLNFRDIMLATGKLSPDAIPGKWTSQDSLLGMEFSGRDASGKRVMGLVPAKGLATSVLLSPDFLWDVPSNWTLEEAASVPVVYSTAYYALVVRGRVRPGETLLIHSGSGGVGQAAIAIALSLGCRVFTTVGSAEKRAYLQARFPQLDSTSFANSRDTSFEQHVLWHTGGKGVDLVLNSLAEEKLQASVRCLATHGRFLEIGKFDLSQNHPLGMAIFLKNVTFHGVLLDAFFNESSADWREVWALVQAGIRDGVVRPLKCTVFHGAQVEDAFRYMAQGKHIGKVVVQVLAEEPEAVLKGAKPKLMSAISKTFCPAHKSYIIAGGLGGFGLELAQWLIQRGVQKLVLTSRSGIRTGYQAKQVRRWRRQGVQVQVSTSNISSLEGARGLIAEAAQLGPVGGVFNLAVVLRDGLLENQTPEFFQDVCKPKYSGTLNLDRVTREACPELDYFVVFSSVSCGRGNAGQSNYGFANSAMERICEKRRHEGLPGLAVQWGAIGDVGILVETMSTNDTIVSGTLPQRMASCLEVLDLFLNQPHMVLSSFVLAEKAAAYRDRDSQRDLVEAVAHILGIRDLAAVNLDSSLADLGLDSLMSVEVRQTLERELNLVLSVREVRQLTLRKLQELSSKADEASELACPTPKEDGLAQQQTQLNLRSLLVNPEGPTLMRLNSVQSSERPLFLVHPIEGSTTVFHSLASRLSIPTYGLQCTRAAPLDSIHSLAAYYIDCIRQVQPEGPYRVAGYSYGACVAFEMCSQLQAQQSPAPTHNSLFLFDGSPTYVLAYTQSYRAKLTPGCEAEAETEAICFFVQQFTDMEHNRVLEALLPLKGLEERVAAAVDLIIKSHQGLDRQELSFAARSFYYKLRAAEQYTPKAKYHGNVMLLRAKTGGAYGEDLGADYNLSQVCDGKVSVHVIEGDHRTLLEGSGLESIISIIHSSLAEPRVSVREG", "assay": "FAS thioesterase domain inhibitors, dose response, biochemical, kinetic fluorescence intensity (AID 624326);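 further: rate of fluorescence rise from hydrolysis of a fluorogenic O-methyl fluorescein ester substrate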", "format": "functional"}, "Fatty acid synthase [2]": {"target": "T1, Fatty acid synthase", "assay": "FAS thioesterase domain inhibitors, dose response, biochemical, endpoint fluorescence intensity, uHTS hits (AID 624327);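 further: fluorescence from hydrolysis of an O-methyl fluorescein acyl ester substrate by the enzyme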", "format": "functional"}, "HEK293": {"system": "HEK293", "assay": "inhibitors of LMP1-driven NF-kB reporter, dose response, cell-based, HEK293, luciferase, cherry-pick (AID 588343)", "format": "functional", "settings": "Homo sapiens"}, "Coagulation factor XII": {"target": "T2, Coagulation factor XII (Homo sapiens, UniProt P00748)", "T2 sequence (P00748 whole entry)": "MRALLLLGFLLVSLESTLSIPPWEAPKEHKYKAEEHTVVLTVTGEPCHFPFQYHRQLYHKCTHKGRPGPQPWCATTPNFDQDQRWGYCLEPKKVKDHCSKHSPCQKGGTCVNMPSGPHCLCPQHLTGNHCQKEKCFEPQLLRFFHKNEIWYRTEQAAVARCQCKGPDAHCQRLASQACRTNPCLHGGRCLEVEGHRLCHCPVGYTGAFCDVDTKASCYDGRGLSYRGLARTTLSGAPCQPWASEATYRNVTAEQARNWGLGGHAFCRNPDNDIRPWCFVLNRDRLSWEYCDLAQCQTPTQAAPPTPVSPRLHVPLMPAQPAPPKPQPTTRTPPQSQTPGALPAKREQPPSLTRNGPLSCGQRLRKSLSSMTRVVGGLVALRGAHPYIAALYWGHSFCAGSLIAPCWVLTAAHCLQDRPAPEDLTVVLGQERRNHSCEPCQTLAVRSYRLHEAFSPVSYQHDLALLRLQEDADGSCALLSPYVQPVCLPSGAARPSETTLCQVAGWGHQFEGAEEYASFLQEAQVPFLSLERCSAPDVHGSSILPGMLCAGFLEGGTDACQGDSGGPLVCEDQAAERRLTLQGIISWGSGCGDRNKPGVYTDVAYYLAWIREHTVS", "format": "functional"}, "[3]": {"target": "FAD-linked sulfhydryl oxidase ALR (Homo sapiens, UniProt P55789)", "sequence (P55789 whole entry)": "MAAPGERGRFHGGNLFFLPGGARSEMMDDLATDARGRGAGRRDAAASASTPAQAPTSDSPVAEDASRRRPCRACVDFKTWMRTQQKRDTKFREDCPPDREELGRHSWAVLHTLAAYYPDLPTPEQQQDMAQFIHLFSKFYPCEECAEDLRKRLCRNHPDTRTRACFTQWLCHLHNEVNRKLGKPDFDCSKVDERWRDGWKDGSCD", "assay": "inhibitors of human ALR sulfhydryl oxidase, dose response, biochemical, H2O2 detection, luminescence, cherry-pick (AID 493248)"}, "[4]": {"target": "T3, Ubiquitin-conjugating enzyme E2 N (Homo sapiens, UniProt P61088)", "T3 sequence (P61088 whole entry)": "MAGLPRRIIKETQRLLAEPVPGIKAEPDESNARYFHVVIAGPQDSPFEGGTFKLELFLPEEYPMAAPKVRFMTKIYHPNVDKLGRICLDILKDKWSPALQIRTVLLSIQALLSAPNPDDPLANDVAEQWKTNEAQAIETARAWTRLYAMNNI", "format": "functional"}, "H9c2": {"system": "H9c2", "assay": "cells", "format": "functional, cell-based", "settings": "Rattus norvegicus, H9c2, Myocardium"}, "[5]": {"target": "T4, Corticotropin-releasing factor receptor 2/Corticotropin-releasing factor-binding protein (Homo sapiens, UniProt P24387+Q13324)", "T4 sequence (Q13324 whole entry)": "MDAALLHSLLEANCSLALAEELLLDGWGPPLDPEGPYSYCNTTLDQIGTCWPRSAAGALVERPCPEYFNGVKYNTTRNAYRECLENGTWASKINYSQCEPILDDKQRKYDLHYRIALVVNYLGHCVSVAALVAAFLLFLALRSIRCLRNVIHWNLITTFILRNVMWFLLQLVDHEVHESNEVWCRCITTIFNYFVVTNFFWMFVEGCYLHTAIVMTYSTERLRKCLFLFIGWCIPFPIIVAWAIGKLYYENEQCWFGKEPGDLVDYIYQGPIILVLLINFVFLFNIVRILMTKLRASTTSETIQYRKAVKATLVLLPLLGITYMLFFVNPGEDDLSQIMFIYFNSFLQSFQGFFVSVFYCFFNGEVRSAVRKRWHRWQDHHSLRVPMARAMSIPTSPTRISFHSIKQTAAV", "T4 sequence (P24387 whole entry)": "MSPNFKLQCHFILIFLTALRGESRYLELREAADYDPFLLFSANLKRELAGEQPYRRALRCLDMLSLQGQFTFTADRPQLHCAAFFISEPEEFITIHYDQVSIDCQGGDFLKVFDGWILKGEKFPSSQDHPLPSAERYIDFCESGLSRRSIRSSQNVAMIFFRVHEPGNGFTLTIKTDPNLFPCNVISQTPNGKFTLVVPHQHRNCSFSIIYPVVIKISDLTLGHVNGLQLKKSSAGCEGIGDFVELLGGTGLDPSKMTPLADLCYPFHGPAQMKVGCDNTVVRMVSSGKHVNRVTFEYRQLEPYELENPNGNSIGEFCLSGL", "assay": "activators of CRF receptor 2 with binding protein – uHTS hits, confirmation (AID 602473)", "format": "functional", "settings": "read-out: EC50_Mean"}, "[6]": {"assay": "MC4R antagonists, dose response, counter-screen for LGR2 antagonist project, cell-based, plate reader, cherry pick (AID 743444);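 further: transfected HEK 293 cells stimulated with alpha-MSH peptide; potency of inhibitors of the alpha-MSH evoked signal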", "format": "functional"}, "[7]": {"assay": "LGR2 antagonists, dose response, cell-based, HEK293, CRE-luciferase reporter, cherry pick, set 2 (AID 743343);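 further: transfected cells were stimulated with diluted bursicon conditioned medium after compound addition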", "format": "functional"}, "[8]": {"assay": "NIH:OVCAR-3 ovarian cancer cell cytotoxicity, dose response, PAX8 inhibitor project, plate reader, dry powder samples (AID 743044)", "format": "functional, cell-based"}, "Paired box protein Pax-8": {"target": "Paired box protein Pax-8 (Homo sapiens, UniProt Q06710)", "sequence (Q06710 whole entry)": "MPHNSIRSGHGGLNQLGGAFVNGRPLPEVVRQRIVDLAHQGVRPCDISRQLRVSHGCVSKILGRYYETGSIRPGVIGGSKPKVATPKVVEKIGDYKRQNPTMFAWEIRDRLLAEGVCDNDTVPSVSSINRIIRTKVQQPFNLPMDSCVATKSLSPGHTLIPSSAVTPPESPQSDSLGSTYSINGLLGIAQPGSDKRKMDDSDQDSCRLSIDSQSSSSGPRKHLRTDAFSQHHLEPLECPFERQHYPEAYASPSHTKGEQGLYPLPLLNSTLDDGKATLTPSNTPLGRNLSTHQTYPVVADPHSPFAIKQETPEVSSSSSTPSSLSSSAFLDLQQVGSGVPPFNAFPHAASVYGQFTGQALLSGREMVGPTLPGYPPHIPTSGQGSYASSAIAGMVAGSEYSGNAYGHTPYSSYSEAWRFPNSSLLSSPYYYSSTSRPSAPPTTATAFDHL", "assay": "inhibitors of PAX8-driven TPO luciferase reporter, dose response, RMG-I cells, cherry-pick (AID 687027);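 further: luciferase reporter driven by Pax8 target thyroperoxidase promoter measured by SteadyGlo luminescence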", "format": "functional, cell-based"}, "[9]": {"target": "T5, Calpain-2 catalytic subunit (Sus scrofa, UniProt P43367)", "T5 sequence (P43367 whole entry)": "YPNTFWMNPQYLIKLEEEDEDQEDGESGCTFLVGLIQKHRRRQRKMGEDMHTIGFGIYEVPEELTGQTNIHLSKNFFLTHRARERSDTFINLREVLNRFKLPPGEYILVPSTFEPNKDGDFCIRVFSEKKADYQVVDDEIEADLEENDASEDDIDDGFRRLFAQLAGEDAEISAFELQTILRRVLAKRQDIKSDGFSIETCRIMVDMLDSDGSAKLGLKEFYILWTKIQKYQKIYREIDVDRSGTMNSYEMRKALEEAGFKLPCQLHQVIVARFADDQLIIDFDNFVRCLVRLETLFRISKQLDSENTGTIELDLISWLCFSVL", "assay": "pig calpain II inhibitor potency, dose response, biochemical, fluorogenic peptide substrate (AID 1420)", "format": "functional"}}, "note": "The source made the active and inactive calls.", "data": [{"smiles": "N#CC1(NC(=O)COC(=O)c2cc([N+](=O)[O-])ccc2N2CCOCC2)CCCCC1", "values": [{"measurement": "IC50", "setting": "Fatty acid synthase [1]", "value": "2.59 µM (active)"}, {"measurement": "IC50", "setting": "Fatty acid synthase [2]", "value": "3.79 µM (active)"}]}, {"smiles": "Cc1ccnc(NC(=O)c2sc3ccccc3c2Cl)c1", "values": [{"measurement": "AC50", "setting": "HEK293", "value": "1.46 µM (active)"}]}, {"smiles": "COc1ccc(N2CCCn3c2nc2c3c(=O)n(Cc3ccc(C)cc3)c(=O)n2C)c(OC)c1", "values": [{"measurement": "IC50", "setting": "Coagulation factor XII", "value": "> 50 µM (inactive)"}]}, {"smiles": "[O-][S+](NC1CCCCC1)C12CC3CC(CC(C3)C1)C2", "note": "(stereo not given)", "values": [{"measurement": "IC50", "setting": "Coagulation factor XII", "value": "> 50 µM (inactive)"}]}, {"smiles": "O=C(Cn1nc(-c2ccco2)ccc1=O)Nc1ccc(Cl)c(Cl)c1", "values": [{"measurement": "IC50", "setting": "Fatty acid synthase [1]", "value": "12.4 µM (active)"}, {"measurement": "IC50", "setting": "Fatty acid synthase [2]", "value": "13.1 µM (active)"}]}, {"smiles": "O=C(Oc1ccc2c(=O)c(Cl)coc2c1)c1ccncc1", "values": [{"measurement": "IC50", "setting": "Coagulation factor XII", "value": "18 µM (active)"}]}, {"smiles": "CC(C)(C)c1ccc(Oc2ccc(NC(=O)CCCC(=O)O)cn2)cc1", "values": [{"measurement": "IC50", "setting": "Coagulation factor XII", "value": "> 50 µM (inactive)"}, {"measurement": "AC50", "setting": "[3]", "value": "1.49 µM (active)"}]}, {"smiles": "O=C(O)CCN1C(=O)C2C3c4ccccc4C(c4ccccc43)[C@@H]2C1=O", "note": "(stereo not given in full)", "values": [{"measurement": "IC50", "setting": "Coagulation factor XII", "value": "> 50 µM (inactive)"}]}, {"smiles": "C#CCOCCOCCOCCNc1nc(N2CCN(C(=O)[C@H](CCCN=C(N)N)n3cc(C(N)[C@@H](C)CC)nn3)CC2)nc(N2CCN(C(=O)[C@H](CCCCN)n3cc([C@@H](N)CC(N)=O)nn3)CC2)n1", "note": "(stereo not given in full)", "values": [{"measurement": "IC50", "setting": "[4]", "value": "> 20 µM (inactive)"}]}, {"smiles": "CCOC(=O)C1CCN(C(=O)c2ccc3c(=O)n4nc(Nc5ccccc5OC)sc4nc3c2)CC1", "values": [{"measurement": "IC50", "setting": "Fatty acid synthase [1]", "value": "11.8 µM (active)"}, {"measurement": "IC50", "setting": "Fatty acid synthase [2]", "value": "12.4 µM (active)"}, {"measurement": "IC50", "setting": "H9c2", "value": "> 79 µM (inactive)"}]}, {"smiles": "O=C(C[C@H]1C[C@H](C(=O)N2CCOCC2)[C@@]2(CCC3CCCC3)c3[nH]c4ccc(Cl)cc4c3CCN2C1=O)NCCN1CCOCC1", "values": [{"measurement": "IC50", "setting": "Fatty acid synthase [1]", "value": "2.26 µM (active)"}, {"measurement": "IC50", "setting": "Fatty acid synthase [2]", "value": "2.04 µM (active)"}, {"measurement": "EC50", "setting": "[5]", "value": "> 53 µM (inactive)"}]}, {"smiles": "CC(C)(C)c1ccc(C(=O)N2CCC2(C)C(=O)NS(=O)(=O)c2ccc(C#N)cc2)cc1", "note": "(stereo not given)", "values": [{"measurement": "IC50", "setting": "Fatty acid synthase [1]", "value": "8.79 µM (active)"}, {"measurement": "IC50", "setting": "Fatty acid synthase [2]", "value": "9.51 µM (active)"}]}, {"smiles": "OC1CCC(Nc2ccn3nc(-c4cccc(OCc5ccccc5)c4)cc3n2)CC1", "note": "(stereo not given)", "values": [{"measurement": "AC50", "setting": "[6]", "value": "37.1 µM (active)"}, {"measurement": "AC50", "setting": "[7]", "value": "34.3 µM (active)"}]}, {"smiles": "COc1ccc2c3c(n(C)c2c1)[C@@H](CO)N(C(=O)Nc1ccc(F)cc1)CC31CCN(S(=O)(=O)c2cccc(C)c2)CC1", "values": [{"measurement": "AC50", "setting": "[8]", "value": "64 µM (active)"}, {"measurement": "AC50", "setting": "Paired box protein Pax-8", "value": "5.97 µM (active)"}]}, {"smiles": "O=C(C[C@@H]1C[C@@H]2c3cc(NC(=O)Cc4ccncc4)ccc3O[C@@H]2[C@H](CO)O1)NCc1ccc(-c2ccccc2)cc1", "values": [{"measurement": "AC50", "setting": "[8]", "value": "37.8 µM (active)"}, {"measurement": "AC50", "setting": "Paired box protein Pax-8", "value": "13.3 µM (active)"}]}, {"smiles": "C[C@H]1CN([C@@H](C)CO)C(=O)Cc2cc(NC(=O)NC3CCCCC3)ccc2O[C@H]1CN(C)S(=O)(=O)c1ccc(Cl)cc1", "values": [{"measurement": "AC50", "setting": "[8]", "value": "13.5 µM (active)"}, {"measurement": "AC50", "setting": "Paired box protein Pax-8", "value": "11.9 µM (active)"}]}, {"smiles": "CO/N=C/c1ccc(Sc2ccccc2N)c([N+](=O)[O-])c1", "values": [{"measurement": "IC50", "setting": "[9]", "value": "9.01 µM (not active)"}, {"measurement": "IC50", "setting": "Coagulation factor XII", "value": "> 50 µM (inactive)"}]}]}
